Measurements from PubChem BioAssay (NCI).
“And” between values parts separate entries of the source, which are not always exact repeats. Identical values can stand only once.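 A five-concentration, 48-hour dose response in 96-well plates underlies each endpoint, interpolated linearly between surrounding concentrations. Abbreviation: GI50, concentration required for 50% inhibition of growth. TGI denotes the concentration required for complete inhibition of growth.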

Assays:
Experiment in all cases: inhibition of tumour cell growth, NCI panel, 48 h
A498 renal = system: A498 renal
MCF7 breast = system: MCF7 breast
HS 578T breast = system: HS 578T breast
OVCAR-8 ovarian = system: OVCAR-8 ovarian
MDA-MB-435 = system: MDA-MB-435
M14 melanoma = system: M14 melanoma

Compound | GI50 (A498 renal) | TGI (A498 renal) | GI50 (MCF7 breast) | TGI (MCF7 breast) | GI50 (HS 578T breast) | TGI (HS 578T breast) | GI50 (OVCAR-8 ovarian) | TGI (OVCAR-8 ovarian) | GI50 (MDA-MB-435) | TGI (MDA-MB-435) | GI50 (M14 melanoma) | TGI (M14 melanoma)
COc1ccc(-c2nc3sccn3c2/C(N)=N/C(=N)N)cc1OC | > 100 µM | > 100 µM | 56.9 µM | > 100 µM | 35.5 µM | > 100 µM | 43.8 µM | > 100 µM | 33.1 µM | > 100 µM | 29.4 µM | 79.5 µM
COc1cc(CNc2cnc3cc(N)cc(N)c3n2)cc(OC)c1 | – | – | 24.5 µM | > 100 µM | 17 µM | 52 µM | 22.6 µM | 57.6 µM | 21.1 µM | 39.5 µM | 18.1 µM | 33.8 µM
NC(Cc1c[nH]c2c(O)cccc12)C(=O)O (configuration not stated) | – | – | > 100 µM | > 100 µM | – | – | > 100 µM | > 100 µM | > 100 µM | > 100 µM | > 100 µM | > 100 µM
CCCCOC(=O)C1OC(O[C@H]2CCC3(C)C(CCC4(C)C3CC=C3C5CC(C)(C)CCC5(C(=O)O)CC[C@]34C)C2(C)C)C(OC2OC(CO)C(O)C(O)C2O)C(OC2OC(CO)C(O)C(O)C2O)C1O (some centres not stated) | – | – | 38.4 µM | > 100 µM | 38 µM | > 100 µM | 66.8 µM | > 100 µM | 30.6 µM | 81 µM | 17.8 µM | 32.7 µM
O=C1CC(c2ccc3c(c2)OCO3)Nc2ccccc21 (configuration not stated) | 13.4 µM | 28.7 µM | 4.96 µM | 36.7 µM | 17.8 µM | 77 µM | 14.4 µM | 63.3 µM | 4.94 µM | 31.1 µM | 14 µM | 30.5 µM
O=C1C=C(Cl)C(=O)C(c2ccc(Cl)cc2)=C1 | – | 50.8 µM | – | 41.6 µM | – | 74.9 µM | – | 40.7 µM | – | 46.6 µM | – | 32.2 µM
O=C1C(Cl)=C(Nc2cccc(Cl)c2)C(=O)N1Cc1ccc(Cl)cc1Cl | 0.771 µM | 7.12 µM | 1.24 µM | 41.5 µM | 1.23 µM | 22.9 µM | 0.0603 µM | > 36.1 µM | 1.24 µM | 16 µM | 4.87 µM | 21.9 µM
CCOC(=O)[C@]1(OC(C)=O)C[C@H](OC(C)=O)[C@@H](C(F)COP(=O)(OCc2ccccc2)OCc2ccccc2)O1 (some centres not stated) | 24.7 µM and > 100 µM | 52.8 µM and > 100 µM | 20.8 µM and > 100 µM | 45.6 µM and > 100 µM | – | > 100 µM | – | > 100 µM | 18.3 µM and 79.2 µM | 38.2 µM and > 100 µM | 49.4 µM and > 100 µM | > 100 µM
CC1(C)CCc2c(c3c(c4c(=O)c(O)c(-c5ccc(O)cc5)oc24)OC(C)(C)CC3)O1 | – | – | > 100 µM | > 100 µM | 69.8 µM | > 100 µM | 36.3 µM | > 100 µM | > 100 µM | > 100 µM | > 100 µM | > 100 µM
Cc1ccc(C(=O)/C(=C/c2ccc([N+](=O)[O-])cc2)SCc2ccc(Cl)cc2)cc1 | 24 µM | > 100 µM | 0.375 µM | 3.08 µM | 2.14 µM | 6.96 µM | 1.86 µM | 5.64 µM | 1.86 µM | 4.3 µM | 2.52 µM | 19.4 µM
COc1cc(/C=N/NC(=O)c2ccc(C(F)(F)F)nc2Nc2ccc(Cl)cc2C)ccc1O | 3.1 µM | 14.5 µM | 2.02 µM | 11.6 µM | 3.53 µM | 16.5 µM | 1.6 µM | 13.5 µM | 3.08 µM | 11 µM | 3.76 µM | 14.6 µM
O=C(O)CSc1ccc([N+](=O)[O-])cc1[N+](=O)[O-] | – | > 100 µM | – | > 100 µM | – | > 100 µM | – | > 100 µM | – | > 100 µM | – | > 100 µM
COC1=CC(c2ccc[nH]2)=N/C1=C\c1[nH]c(C)c(C(=O)OC(C)C)c1C | 0.255 µM | 1.92 µM | 0.0487 µM | 1.9 µM | 0.0445 µM | 0.34 µM | 0.0397 µM | 1.04 µM | 0.0349 µM | 0.386 µM | 0.034 µM | 1.23 µM
Cn1cc(C2=C(c3cn(C)c4ncccc34)C(=O)NC2=O)c2ccccc21 | 3.73 µM | 11 µM | 7.66 µM | > 25 µM | 4.17 µM | > 19.1 µM | 10.1 µM | > 25 µM | 2.2 µM | > 25 µM | 9.74 µM | > 25 µM
Cc1cc(I)cc(CN(C)CCCCN2CCCCC2)c1O | 11.4 µM | 25.4 µM | 13.6 µM | 30 µM | 8.9 µM | 23.5 µM | 36.5 µM | > 100 µM | 3.5 µM | 12.9 µM | 3.31 µM | 12.4 µM
COc1cc(-c2nn(-c3ccc(NC(=O)c4ccc(Cl)c(C(F)(F)F)c4)cc3)cc2-c2ccncc2)ccc1Cl | 2.4 µM | 17.9 µM | 3.05 µM | > 100 µM | 1.23 µM | 4.03 µM | 5.43 µM | > 100 µM | 2.41 µM | > 100 µM | 2.51 µM | 8.26 µM
COc1ccc2c(c1)/C(=C/c1c(C)nc3sc(C)nn13)C(=O)N2 | 3.07 µM | > 50 µM | 1.61 µM | > 100 µM | 5.16 µM | > 68.3 µM | 6.38 µM | > 100 µM | – | – | 1.79 µM | > 27.9 µM
Cc1nc2ccccc2c(N)c1-c1cc(C)c2c(C)nc3ccccc3c2n1 | 1.73 µM | 4.11 µM | 0.675 µM | 2.06 µM | 0.891 µM | – | 1.41 µM | 2.95 µM | 1.51 µM | 2.86 µM | 1.34 µM | 2.65 µM
CCC(CO)Nc1nc2ccc(Cl)cc2c2ccccc12 (configuration not stated) | 4.6 µM | 16 µM | 12.2 µM | 26.1 µM | 8.82 µM | 34.9 µM | 11.4 µM | 29.3 µM | 6.14 µM | 18.8 µM | 12.8 µM | 25.6 µM
CCN(CCO)CC1CCCC2CCCCC21 (configuration not stated) | – | > 100 µM | – | > 100 µM | – | > 100 µM | – | > 100 µM | – | > 100 µM | – | > 100 µM
NNC(=O)Nc1cccnc1 | – | > 100 µM | – | > 100 µM | – | – | – | > 100 µM | – | > 100 µM | – | > 100 µM
